Source: US7569724B2, “Carbamic acid compounds comprising an amide linkage as HDAC inhibitors” (Topotarget UK Limited, priority 2000, dated 2009)
Like-named read-outs stand apart in the source and are kept apart here.

Legend:
HDAC (HeLa cell extract) = test: Primary assay: deacetylase activity, HeLa cell extract as source of HDAC; assay type: biochemical, human; conditions: HeLa cell extract
Text: Briefly, this assay relies on the release of radioactive acetate from a radioactively labelled histone fragment by the action of HDAC enzyme. Test compounds, which inhibit HDAC, reduce the yield of radioactive acetate. Signal (e.g., scintillation counts) measured in the presence and absence of a test compound provide an indication of that compound's ability to inhibit HDAC activity. Decreased activity indicates increased inhibition by the test compound.
The histone fragment was an N-terminal sequence from histone H4, and it was labelled with radioactively labelled acetyl groups using tritiated acetylcoenzyme A (coA) in conjunction with an enzyme which is the histone acetyltransferase domain of the transcriptional coactivator p300. […] The acetylated peptide was then separated from free acetyl coA by size exclusion chromatography on Sephadex G-15 (Sigma G-15-120), using distilled H2O as the mobile phase.
After purification of the radiolabelled histone fragment, it was incubated with a source of HDAC (e.g., an extract of HeLa cells (a rich source of HDAC), recombinantly produced HDAC1 or HDAC2) and any released acetate was extracted into an organic phase and quantitatively determined using scintillation counting. By including a test compound with the source of HDAC, that compound's ability to inhibit the HDAC was determined.
The HeLa cell extract was made from HeLa cells (ATCC Ref. No. CCL-2) by freeze-thawing three times in 60 mM TrisCl pH 8.0, 450 mM NaCl, 30% glycerol. Two cell volumes of extraction buffer were used, and particulate material was centrifuged out (20800 g, 4° C., 10 min). The supernatant extract having deacetylase activity was aliquotted and frozen for storage.
A source of HDAC (e.g., 2 μL of crude HeLa extract, 5 μL of HDAC1 or HDAC2; in elution buffer, as above) was incubated with 3 μL of radioactively labelled peptide along with appropriate dilutions of candidate compounds (1.5 μL) in a total volume of 150 μL of buffer (20 mM Tris pH 7.4, 10% glycerol). The reaction was carried out at 37° C. for one hour, after which the reaction was stopped by adding 20 μL of 1 M HCl/0.4 M sodium acetate. […] Radioactivity was measured using a Tri-Carb 2100TR Liquid Scintillation Analyzer (Packard).
Percent activity (% activity) for each test compound was calculated as: % activity={(S^C−B)/(S^o−B)}×100 wherein S^C denotes signal measured in the presence of enzyme and the compound being tested, S^o denotes signal measured in the presence of enzyme but in the absence of the compound being tested, and B denotes the background signal measured in the absence of both enzyme and compound being tested.

HeLa cells = test: Secondary assay: cell proliferation WST-1, HeLa; assay type: cell-based; conditions: Homo sapiens, 48 h, read-out: Cell Proliferation Inhibition WST-1 (IC50 unless otherwise specified) HeLa
Procedure: (§1) Compounds with HDAC inhibition activity, as determined using the primary assay, were subsequently evaluated using secondary cell-based assays. The following cell lines were used:
HeLa—Human cervical adenocarcinoma cell line (ATCC ref. No. CCL-2).
(§2) Cells were plated in 96-well plates at 3-10×10^3 cells/well in 100 μL of culture medium. The following day, different concentrations of candidate compounds were added and the cells incubated at 37° C. for 48 h. Subsequently, 10 μL/well of WST-1 reagent was added and the cells reincubated for 1 hour. After the incubation time, absorbance was measured.
(§3) WST-1 is a tetrazolium salt which is cleaved to formazan dye by cellular enzymes. An expansion in the number of viable cells results in an increase in the overall activity of mitochondrial dehydrogenases in the sample. This augmentation in the enzyme activity leads to an increase in the amount of formazan dye formed, which directly correlates to the number of metabolically active cells in the culture. The formazan dye produced is quantified by a scanning multiwell spectrophotometer by measuring the absorbance of the dye solution at 450 nm wavelength (reference wavelength 690 nm).
(§4) Percent activity (% activity) in reducing the number of viable cells was calculated for each test compound as: % activity={(S^C−B)/(S^o−B)}×100 wherein S^C denotes signal measured in the presence of the compound being tested, S^o denotes signal measured in the absence of the compound being tested, and B denotes the background signal measured in blank wells containing medium only.
(§5) IC50 values were calculated using the software package Prism 3.0 (GraphPad software Inc., San Diego, Calif.), setting top value at 100 and bottom value at 0.

[1] = system: K11 HPV E7 transformed human keratinocyte line; test: Secondary assay: cell proliferation WST-1, K11; assay type: cell-based; conditions: Homo sapiens, Keratinocyte, 48 h, read-out: Cell Proliferation Inhibition WST-1 (IC50 unless otherwise specified) K11
Procedure: as §1
K11—HPV E7 transformed human keratinocyte line provided by Pidder Jansen-Duerr, Institut für Biomedizinische Alternsforschung, Innsbruck, Austria.
as §2, §3, §4, §5

JURKAT human T-cell line = test: Secondary assay: cell proliferation WST-1, Jurkat; assay type: cell-based; conditions: Homo sapiens, 48 h, read-out: Cell Proliferation Inhibition WST-1 (IC50 unless otherwise specified) Jurkat
Procedure: as §1
JURKAT—Human T-cell line (ATCC no. TIB-152).
as §2, §3, §4, §5

[2] = read-out: HDAC Inhibition (IC50 unless otherwise specified) HeLa
[3] = comparative tables, read-out: HeLa IC50

IC50 (HDAC (HeLa cell extract); [2]) [nM] | IC50 (HDAC (HeLa cell extract); [3]) [nM] | IC50 (HeLa cells) [µM] | melting point [°C] | IC50 (HDAC (HeLa cell extract); comparative tables, no unit in cell, read-out: HeLa IC50) [nM] | Structure (SMILES) | IC50 [1] [µM] | IC50 (JURKAT human T-cell line) [nM] | HDAC Inhibition HeLa, percent (HDAC (HeLa cell extract); @ 500 nM) [% @ 500 nM] | percent HDAC inhibition at the stated concentration (HDAC (HeLa cell extract); comparative tables, @ 500 nM) [% @ 500 nM]
1500 | 1500 | 24 | 129 |  | CN(C)c1ccc(C(=O)NCCCCC(=O)NO)c2ccccc12 [PX082534, 4-Dimethylamino-napthalene-1-carboxylic acid (4-hydroxycarbamoyl-butyl)-amide] |  |  |  | 
396 | 400 | 18 | 113.5 to 115 |  | O=C(CCCCCNC(=O)c1ccco1)NO [PX105826, Furan-2-carboxylic acid (5-hydroxycarbamoyl-pentyl)-amide] |  |  |  | 
82 |  | 14 | 131 to 133 |  | O=C(/C=C/C=C/c1ccccc1[N+](=O)[O-])NCCCCCC(=O)NO [PX105830, (2E,4E)-5-(2-Nitrophenyl)penta-2,4-dienoic acid (5-hydroxycarbamoyl-pentyl)amide] |  |  |  | 
62 |  | 0.65 | 147 to 149 | 62 | O=C(/C=C/C=C/c1ccccc1)NCCCCCCC(=O)NO [PX106518] |  |  |  | 
63 |  | 8.4 | 158 to 160 |  | C/C(=C\C=C\c1ccccc1)C(=O)NCCCCCC(=O)NO [PX106520, (2E,4E)-2-Methyl-5-phenylpenta-2,4-dienoic acid (5-hydroxycarbamoylpentyl)-amide] |  |  |  | 
19 |  | 0.57 | 151 to 153 |  | O=C(/C=C/c1cccs1)NCCCCCC(=O)NO [PX117247, N-(5-Hydroxycarbamoyl-pentyl)-3-thiophen-2-yl-acrylamide] |  |  |  | 
 |  | 11 | 123 to 123.5 |  | O=C(CCCCCCC(=O)NCC(c1ccccc1)c1ccccc1)NO [PX117249, Octanedioic acid (2,2-diphenyl-ethyl)-amide hydroxyamide] |  |  | 64 | 
 |  | 6.9 | 112 to 114 |  | O=C(CCCCCNC(=O)[C@H](Cc1c[nH]c2ccccc12)NC(=O)Cc1ccc2ccccc2c1)NO [PX117406, N-Hydroxy-6-[((2S)-3-(1H-indol-3-yl)-2-{[2-(2-naphthyl)acetyl]-amino}propanoyl)amino]-hexanamide] |  |  | 48 | 
62 |  | 11 | 112 to 113 |  | O=C(C#Cc1ccccc1)NCCCCCC(=O)NO [PX117415, 3-Phenyl-propynoic acid (5-hydroxycarbamoyl-pentyl)-amide] |  |  |  | 

Second part, the molecule before the results:

Structure (SMILES) | IC50 (HDAC (HeLa cell extract); [2]) [nM] | IC50 (HDAC (HeLa cell extract); [3]) [nM] | IC50 (HeLa cells) [µM] | melting point [°C] | IC50 (HDAC (HeLa cell extract); comparative tables, no unit in cell, read-out: HeLa IC50) [nM] | IC50 [1] [µM] | IC50 (JURKAT human T-cell line) [nM] | HDAC Inhibition HeLa, percent (HDAC (HeLa cell extract); @ 500 nM) [% @ 500 nM] | percent HDAC inhibition at the stated concentration (HDAC (HeLa cell extract); comparative tables, @ 500 nM) [% @ 500 nM]
O=C(CCCCCNC(=O)c1ccc2ccccc2c1)NO [PX105687, Naphthalene-2-carboxylic acid (5-hydroxycarbamoylpentyl)amide] |  |  |  |  |  | 2.6 | 400 |  | 
O=C(CCCCCNC(=O)c1cccc2ccccc12)NO [PX105828, Naphthalene-1-carboxylic acid (5-hydroxycarbamoyl-pentyl)-amide] | 333 | 333 | 17 | 118 to 119 |  |  |  |  | 
O=C(/C=C/C=C/c1ccc([N+](=O)[O-])cc1)NCCCCCC(=O)NO [PX105847, (2E,4E)-5-(4-Nitrophenyl)penta-2,4-dienoic acid (5-hydroxycarbamoyl-pentyl)-amide] | 75 |  | 8.3 | 111 to 113 |  |  |  |  | 
O=C(/C=C/c1ccco1)NCCCCCC(=O)NO [PX106491, 3-Furan-2-yl-N-(5-hydroxycarbamoyl-pentyl)-acrylamide] | 83 | 83 | 0.52 | 151 to 152.5 |  |  |  |  | 
CC(C)(C)c1ccc(C(=O)NCCCCCC(=O)NO)cc1 [PX106496, 4-tert-Butyl-N-(5-hydroxycarbamoylpentyl)benzamide] | 82 |  | 5.8 | 150 to 151.5 |  |  |  |  | 
CN(C)c1ccc(/C=C/C=C/C(=O)NCCCCCC(=O)NO)cc1 [PX106527, (2E,4E)-5-(4-Dimethylamino-phenyl)-penta-2,4-dienoic acid (5-hydroxycarbamoyl-pentyl)-amide] | 24 | 24 | 1 | 172 to 174 |  |  |  |  | 
O=C(CCCCCCC(=O)NCCc1c[nH]c2ccccc12)NO [PX116216, Octanedioic acid hydroxyamide [2-(1H-indol-3-yl)-ethyl]-amide] | 100 |  | 6 | 118.5 to 120 |  |  |  |  | 
O=C(CCCCCNC(=O)CCCCc1ccccc1)NO [PX117261, 6-(5-Phenyl-pentanoylamino)-hexanoic acid hydroxyamide] |  |  | 71 | 97 to 98 |  |  |  | 51 | 
O=C(CCCCCNC(=O)[C@H](Cc1c[nH]c2ccccc12)NC(=O)CCCc1ccccc1)NO [PX117407, N-hydroxy-6-({(2S)-3-(1H-indol-3-yl)-2-[(4-phenylbutanoyl)amino]-propanoyl}amino)-hexanamide] |  |  | 13 | 106 to 108 |  |  |  | 40 | 
O=C(CCCCCC(=O)NCCc1c[nH]c2ccccc12)NO [PX117408, N^1-Hydroxy-N^7-[2-(1H-indol-3-yl)ethyl]heptanediamide] |  |  | 11 | 140 to 142 |  |  |  | 41 | 
CC(C)c1ccc(C(=O)NCCCCCC(=O)NO)cc1 [PX117421, N-[6-(Hydroxyamino)-6-oxohexyl]-4-isopropylbenzamide] | 85 |  | 3.1 | 127.5 to 128 |  |  |  |  | 
O=C(CCCCCNC(=O)CC/C=C\c1ccccc1)NO [PX117444, (Z)-N-[6-(Hydroxyamino)-6-oxohexyl]-5-phenyl4-pentenamide] | 688 |  | 45 | 101 to 103 |  |  |  |  | 
C/C(=C\C#Cc1ccccc1)C(=O)NCCCCCC(=O)NO [PX117451, E-2-Methyl-5-phenylpent-2-en-4-ynoic acid (5-hydroxycarbamoyl-pentyl)amide] | 31 |  | 22 |  |  | 12 |  |  | 
CN(C)c1ccc(CC(=O)NCCCCCC(=O)NO)cc1 [PX117458, 6-[2-(4-Dimethylamino-phenyl)-acetylamino]-hexanoic acid hydroxyamide] |  |  |  | 124 to 126 |  |  |  | 9 | 9
O=C(CCCCCCC(=O)NCc1cccc2ccccc12)NO [PX117459, Octanedioic acid hydroxyamide (naphthalen-1-ylmethyl)-amide] |  |  |  | 141 to 143 |  |  |  | 63 | 
O=C(CCCCCC(=O)Nc1ccc2ccccc2c1)NO [PX117461, Heptanedioic acid hydroxyamide naphthalen-2-ylamide] | 20 |  | > 5 | 142 to 144 |  |  |  |  | 
